Reference: patent US20240059677A1, “SUBSTITUTED PYRIMIDINE DERIVATIVES AS NICOTINIC ACETYLCHOLINESTERASE RECEPTOR ALPHA 6 MODULATOR” (priority 2020, published 2024)

Target: T1, human nAChRα6-α3 chimera, in addition to β2 and β3^V273S subunits (Homo sapiens, UniProt P32297+Q15825)
T1 construct: expressed in transfected cells
Test: fluorescence-based calcium assay: inhibition of nicotine stimulated nAChRα6 activity (FLIPR)
Settings: HEK cell line stably expressing the receptor; 10 min pre-incubation, nicotine EC80; 10-point curve, duplicate wells; read-out: IC50
Protocol: The ability of the test compounds to inhibit nicotine stimulated nAChRα6 activity was determined in a fluorescence-based calcium assay. Compound activity was determined using a HEK cell line stably expressing a human nAChRα6-α3 chimera, in addition to β2 and β3^V273S subunits (as in Capelli et al, Br J Pharmacol 163(2): 313-29 2011). In this cell line, nicotine stimulated an increase in intracellular calcium concentration, measured as an increase in fluorescence when cells were incubated with a calcium sensitive dye. Test compounds were pre-incubated with cells prior to nicotine stimulation to detect any reduction in the magnitude of the nicotine response.
The day prior to the assay, compounds were serially diluted in DMSO (200× final assay concentration (FAC)), in 384-well plates which were then stored in the dark at room temperature (RT) until use. Cells were seeded at 20 k/well in black, poly-D-lysine coated, clear bottom 384-well plates and incubated for 4 hours at 37° C., followed by overnight incubation at 30° C. The following day, the DMSO compound plate was diluted 1:20 (10×FAC) in assay buffer (HEPES buffered saline solution with 10 mM HEPES, 0.1% bovine serum albumin, 1 mM probenecid). A nicotine solution was prepared in assay buffer (7×FAC) and dispensed into a 384-well plate. The growth media was removed from the cell plate, replaced with 53 μl calcium dye/well (Calcium 5; Molecular Devices) and the plate incubated at 30° C. for 45 minutes. Test compounds were then added to the cells (7 μl of 10×FAC) and incubated for 10 minutes, after which nicotine EC80 (10 μl of 7×FAC) was added and changes in fluorescence measured using a FLIPR plate reader (Molecular Devices).
Compound activity was examined using a 10-point, half-log concentration-response range and each concentration was tested in duplicate wells.

T1 sequence (Q05901 25-458 V273S): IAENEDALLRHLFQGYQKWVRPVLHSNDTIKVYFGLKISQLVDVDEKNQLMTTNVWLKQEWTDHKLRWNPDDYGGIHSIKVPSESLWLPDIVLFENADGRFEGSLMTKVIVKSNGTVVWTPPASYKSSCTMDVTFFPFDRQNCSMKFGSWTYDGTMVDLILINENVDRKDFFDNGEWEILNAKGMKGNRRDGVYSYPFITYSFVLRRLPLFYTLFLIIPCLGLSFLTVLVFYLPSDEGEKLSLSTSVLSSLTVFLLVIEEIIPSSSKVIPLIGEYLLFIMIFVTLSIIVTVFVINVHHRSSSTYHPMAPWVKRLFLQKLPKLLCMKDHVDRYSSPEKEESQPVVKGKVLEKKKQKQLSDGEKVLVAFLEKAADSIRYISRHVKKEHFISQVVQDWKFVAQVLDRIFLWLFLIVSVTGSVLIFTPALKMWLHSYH
T1 sequence (P17787 26-502, stated change not applied, further chain): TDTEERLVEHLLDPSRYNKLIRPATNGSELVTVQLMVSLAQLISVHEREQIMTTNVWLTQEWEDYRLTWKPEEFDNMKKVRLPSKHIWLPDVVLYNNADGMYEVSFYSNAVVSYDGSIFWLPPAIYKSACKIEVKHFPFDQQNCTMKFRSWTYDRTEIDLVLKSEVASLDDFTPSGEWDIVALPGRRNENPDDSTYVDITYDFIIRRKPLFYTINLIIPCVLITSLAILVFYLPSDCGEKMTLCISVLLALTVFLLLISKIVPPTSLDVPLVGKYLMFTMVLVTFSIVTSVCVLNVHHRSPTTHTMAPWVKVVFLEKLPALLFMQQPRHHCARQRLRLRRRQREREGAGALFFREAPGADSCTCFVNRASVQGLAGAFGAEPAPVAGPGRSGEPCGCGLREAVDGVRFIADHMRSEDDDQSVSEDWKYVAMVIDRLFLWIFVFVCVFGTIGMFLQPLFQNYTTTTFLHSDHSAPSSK
T1 sequence (Q15825+P32297 fused with the stated changes): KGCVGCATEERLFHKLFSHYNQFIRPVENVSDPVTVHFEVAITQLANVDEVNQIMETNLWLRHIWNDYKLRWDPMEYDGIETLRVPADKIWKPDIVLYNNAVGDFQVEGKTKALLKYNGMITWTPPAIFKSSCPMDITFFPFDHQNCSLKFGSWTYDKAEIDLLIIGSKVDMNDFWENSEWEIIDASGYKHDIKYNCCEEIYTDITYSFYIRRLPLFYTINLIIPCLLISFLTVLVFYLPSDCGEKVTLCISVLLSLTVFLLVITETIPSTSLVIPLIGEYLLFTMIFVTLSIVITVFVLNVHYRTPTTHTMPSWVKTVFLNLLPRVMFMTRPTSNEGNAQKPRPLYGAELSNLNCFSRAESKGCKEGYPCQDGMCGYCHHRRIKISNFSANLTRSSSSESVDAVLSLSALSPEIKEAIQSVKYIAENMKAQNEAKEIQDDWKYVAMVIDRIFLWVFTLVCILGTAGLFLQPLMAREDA

Point of comparison: COc1ccc(-c2nnc(NCC3CCCN3C)nc2C)c(F)c1 (racemic) [Example 18, 6-(2-fluoro-4-methoxyphenyl)-5-methyl-N-((1-methylpyrrolidin-2-yl)methyl)-1,2,4-triazin-3-amine], IC50 526 nM. Against it:
- Cc1nc(N[C@@H]2CNC[C@@H]2F)ncc1-c1ccc(C(F)(F)F)cc1F (relative stereo) [Example 112, N-((cis)-4-fluoropyrrolidin-3-yl)-5-(2-fluoro-4-(trifluoromethyl)phenyl)-4-methyl-pyrimidin-2-amine] — 4.9-fold lower, 107 nM
- Cc1nc(N[C@H]2CNC[C@@H]2F)ncc1-c1ccc(C(F)(F)F)cc1F (relative stereo) [Example 114, N-((trans)-4-fluoropyrrolidin-3-yl)-5-(2-fluoro-4-(trifluoromethyl)phenyl)-4-methyl-pyrimidin-2-amine] — 3.7-fold lower, 142 nM
- COc1ccc(-c2nnc(NCC3CCCN3C)nc2C)c(F)c1 (single isomer, unassigned) [Example 18a, 6-(2-fluoro-4-methoxyphenyl)-5-methyl-N-((1-methylpyrrolidin-2-yl)methyl)-1,2,4-triazin-3-amine] — 1.6-fold lower, 331 nM
- COc1ccc(-c2nnc(NCC3CCCN3C)nc2C)c(F)c1 (single isomer, unassigned) [Example 18b, 6-(2-fluoro-4-methoxyphenyl)-5-methyl-N-((1-methylpyrrolidin-2-yl)methyl)-1,2,4-triazin-3-amine] — within 1.5-fold, 442 nM
- COc1ccc(-c2cnc(NCC3CCCN3C)nc2C)c(F)c1 (single isomer, unassigned) [Example 28a, 5-(2-fluoro-4-methoxyphenyl)-4-methyl-N-((1-methylpyrrolidin-2-yl)methyl)pyrimidin-2-amine] — 9.7-fold lower, 54 nM
- COc1ccc(-c2cnc(NCC3CCCN3C)nc2C)c(F)c1 (single isomer, unassigned) [Example 28b, 5-(2-fluoro-4-methoxyphenyl)-4-methyl-N-((1-methylpyrrolidin-2-yl)methyl)pyrimidin-2-amine] — 53-fold lower, 10 nM
- COc1ccc(-c2cnc(NC3CCC(N(C)C)C3)nc2C#N)c(F)c1 (single isomer, unassigned) [Example 38a, 2-((3-(dimethylamino)cyclopentyl)amino)-5-(2-fluoro-4-methoxyphenyl) pyrimidine-4-carbonitrile] — 8.9-fold lower, 59 nM
- COc1ccc(-c2cnc(NC3CCC(N(C)C)C3)nc2C#N)c(F)c1 (single isomer, unassigned) [Example 38b, 2-((3-(dimethylamino)cyclopentyl)amino)-5-(2-fluoro-4-methoxyphenyl) pyrimidine-4-carbonitrile] — 7.5-fold lower, 70 nM
- Cc1nc(NC2CCCC(N(C)C)C2)nnc1-c1ccc(F)cc1F (single isomer, unassigned) [Example 39a, N^1-(6-(2,4-difluorophenyl)-5-methyl-1,2,4-triazin-3-yl)-N^3,N^3-dimethylcyclohexane-1,3-diamine] — 1.7-fold higher, 904 nM
- Cc1nc(NC2CCCC(N(C)C)C2)nnc1-c1ccc(F)cc1F (single isomer, unassigned) [Example 39b, N^1-(6-(2,4-difluorophenyl)-5-methyl-1,2,4-triazin-3-yl)-N^3,N^3-dimethylcyclohexane-1,3-diamine] — 1.7-fold higher, 901 nM
- COc1ccc(-c2cnc(NC3CCC(N(C)C)C3)nc2C)c(F)c1 (single isomer, unassigned) [Example 44a, N^1-(5-(2-fluoro-4-methoxyphenyl)-4-methyl-pyrimidin-2-yl)-N^3,N^3-dimethylcyclopentane-1,3-diamine] — 6.9-fold lower, 76 nM
- COc1ccc(-c2cnc(NC3CCC(N(C)C)C3)nc2C)c(F)c1 (single isomer, unassigned) [Example 44b, N^1-(5-(2-fluoro-4-methoxyphenyl)-4-methyl-pyrimidin-2-yl)-N^3,N^3-dimethylcyclopentane-1,3-diamine] — 6-fold lower, 88 nM
- COc1ccc(-c2cnc(NC3CCCC(OC)C3)nc2C)c(F)c1 (single isomer, unassigned) [Example 53a, 5-(2-fluoro-4-methoxyphenyl)-N-(3-methoxycyclohexyl)-4-methyl-pyrimidin-2-amine] — 2.4-fold higher, 1240 nM
